Structures are written as SMILES.

The subject of experiment [1] is HCV genotype 1a (H77 strain) replicon in HUH-7 cells. The experiment is described as follows: HCV replicon luciferase reporter assay, genotype 1a. Type of experiment: cell-based. The settings on record: Hepatitis C virus, Huh-7, 72 h, HCV genotype 1a replicon luciferase assay, 3 days incubation, range class, read-out: LE_1a (EC50, range). A digest of the protocol: (§1)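 Replicon inhibition for both genotypes was measured as Renilla luciferase signal (EnduRen, 7.5 μM final, 2 h) after 3-day, 37° C exposure of replicon-bearing HUH-7 cells in 4% FCS DMEM, 0.5% DMSO. The 1b construct carries S1179I; the 1a H77 construct carries P1496L and S2204I. Twenty-point, 3-fold dilutions were fitted four-parametrically for EC50, and CC50 was taken from multiplexed Cell Titer-Blue.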

Experiment [2] deals with HCV genotype 1b (Con1) replicon in HUH-7 cells. The experiment is described as follows: HCV replicon luciferase reporter assay, genotype 1b. Particulars: Hepatitis C virus, Huh-7, 72 h, HCV genotype 1b replicon luciferase assay, 3 days incubation, range class, read-out: LE_1b (EC50, range). Type of experiment: cell-based. Summed up: as §1
A general note: A replicon is a self-replicating genome or part of one, used to study replication in cells.

Regarding `COc1ccc2c(O[C@@H]3C[C@H]4C(=O)N[C@]5(C(=O)NS(=O)(=O)C6(C)CC6)C[C@H]5/C=C\CC[C@@H](C)C[C@@H](C)[C@H](NC(=O)O[C@@H]5C[C@@H]6C[C@@H]6C5)C(=O)N4C3)nc(N(C)C)cc2c1` [Compound 3111, (1R,3r,5S)-bicyclo[3.1.0]hexan-3-yl((2R,6S,7R,9R,13aS,14aR,16aS,Z)-2-((3-(dimethylamino)-6-methoxyisoquinolin-1-yl)oxy)-7,9-dimethyl-14a-(((1-methylcyclopropyl)sulfonyl)carbamoyl)-5,16-dioxo-1,2,3,5,6,7,8,9,10,11,13a,14,14a,15,16,16a-hexadecahydrocyclopropa[e]pyrrolo[1,2-a][1,4]diazacyclopentadecin-6-yl)carbamate], the EC50 in experiment [1] was < 5.46 nM; in experiment [2] it was 4.82 to 103 nM.

Regarding `COc1ccc2c(O[C@@H]3C[C@H]4C(=O)N[C@]5(C(=O)NS(=O)(=O)C6(C)CC6)C[C@H]5/C=C\CC[C@H](C)C[C@@H](C)[C@H](NC(=O)O[C@H](C)C(F)(F)F)C(=O)N4C3)nc(N(C)C)cc2c1` [Compound 3112, (R)-1,1,1-trifluoropropan-2-yl ((2R,6S,7R,9S,13aS,14aR,16aS,Z)-2-((3-(dimethylamino)-6-methoxyisoquinolin-1-yl)oxy)-7,9-dimethyl-14a-(((1-methylcyclopropyl)sulfonyl)carbamoyl)-5,16-dioxo-1,2,3,5,6,7,8,9,10,11,13a,14,14a,15,16,16a-hexadecahydrocyclopropa[e]pyrrolo[1,2-a][1,4]diazacyclopentadecin-6-yl)carbamate], the EC50 in experiment [1] and in experiment [2] was 4.82 to 103 nM throughout.

`COc1ccc2c(O[C@@H]3C[C@H]4C(=O)N[C@]5(C(=O)NS(=O)(=O)C6(C)CC6)C[C@H]5/C=C\CC[C@@H](C)C[C@@H](C)[C@H](NC(=O)O[C@H](C)C(F)(F)F)C(=O)N4C3)nc(N(C)C)cc2c1` [Compound 3113, (R)-1,1,1-trifluoropropan-2-yl ((2R,6S,7R,9R,13aS,14aR,16aS,Z)-2-((3-(dimethylamino)-6-methoxyisoquinolin-1-yl)oxy)-7,9-dimethyl-14a-(((1-methylcyclopropyl)sulfonyl)carbamoyl)-5,16-dioxo-1,2,3,5,6,7,8,9,10,11,13a,14,14a,15,16,16a-hexadecahydrocyclopropa[e]pyrrolo[1,2-a][1,4]diazacyclopentadecin-6-yl)carbamate]: the EC50 is < 5.46 nM in experiment [1] and 4.82 to 103 nM in experiment [2].

Regarding `[2H]C([2H])([2H])C(OC(=O)N[C@@H]1C(=O)N2C[C@H](Oc3nc(N(C)C)cc4cc(OC)ccc34)C[C@H]2C(=O)N[C@]2(C(=O)NS(=O)(=O)C3(C)CC3)C[C@H]2/C=C\CC[C@H](C)C[C@H]1C)(C([2H])([2H])[2H])C(F)(F)F` [Compound 3114, 1,1,1,3,3,3-hexadeutero-2-(trifluoromethyl)propan-2-yl((2R,6S,7R,9S,13aS,14aR,16aS,Z)-2-((3-(dimethylamino)-6-methoxyisoquinolin-1-yl)oxy)-7,9-dimethyl-14a-(((1-methylcyclopropyl)sulfonyl)carbamoyl)-5,16-dioxo-1,2,3,5,6,7,8,9,10,11,13a,14,14a,15,16,16a-hexadecahydrocyclopropa[e]pyrrolo[1,2-a][1,4]diazacyclopentadecin-6-yl)carbamate], the EC50 in experiment [1] and in experiment [2] was 4.82 to 103 nM throughout.

For the compound `[2H]C([2H])([2H])C(OC(=O)N[C@@H]1C(=O)N2C[C@H](Oc3nc(N(C)C)cc4cc(OC)ccc34)C[C@H]2C(=O)N[C@]2(C(=O)NS(=O)(=O)C3(C)CC3)C[C@H]2/C=C\CC[C@@H](C)C[C@H]1C)(C([2H])([2H])[2H])C(F)(F)F` [Compound 3115, 1,1,1,3,3,3-hexadeutero-2-(trifluoromethyl)propan-2-yl((2R,6S,7R,9R,13aS,14aR,16aS,Z)-2-((3-(dimethylamino)-6-methoxyisoquinolin-1-yl)oxy)-7,9-dimethyl-14a-(((1-methylcyclopropyl)sulfonyl)carbamoyl)-5,16-dioxo-1,2,3,5,6,7,8,9,10,11,13a,14,14a,15,16,16a-hexadecahydrocyclopropa[e]pyrrolo[1,2-a][1,4]diazacyclopentadecin-6-yl)carbamate], the EC50 in experiment [1] and in experiment [2] was 4.82 to 103 nM throughout.

With `COc1ccc2c(O[C@@H]3C[C@H]4C(=O)N[C@]5(C(=O)NS(=O)(=O)C6(C)CC6)C[C@H]5/C=C\CC[C@H](C)C[C@@H](C)[C@H](NC(=O)OC(C)(C)C(F)(F)F)C(=O)N4C3)nc(N3CCCC3)cc2c1` [Compound 3118, 1,1,1-trifluoro-2-methylpropan-2-yl((2R,6S,7R,9S,13aS,14aR,16aS,Z)-2-((6-methoxy-3-(pyrrolidin-1-yl)isoquinolin-1-yl)oxy)-7,9-dimethyl-14a-(((1-methylcyclopropyl)sulfonyl)carbamoyl)-5,16-dioxo-1,2,3,5,6,7,8,9,10,11,13a,14,14a,15,16,16a-hexadecahydrocyclopropa[e]pyrrolo[1,2-a][1,4]diazacyclopentadecin-6-yl)carbamate], the half-maximal effective concentration (EC50) in experiment [1] and in experiment [2] was 4.82 to 103 nM in each case.

In the case of `COc1ccc2c(O[C@@H]3C[C@H]4C(=O)N[C@]5(C(=O)NS(=O)(=O)C6(C)CC6)C[C@H]5/C=C\CC[C@@H](C)C[C@@H](C)[C@H](NC(=O)OC(C)(C)C(F)(F)F)C(=O)N4C3)nc(N3CCCC3)cc2c1` [Compound 3119, 1,1,1-trifluoro-2-methylpropan-2-yl((2R,6S,7R,9R,13aS,14aR,16aS,Z)-2-((6-methoxy-3-(pyrrolidin-1-yl)isoquinolin-1-yl)oxy)-7,9-dimethyl-14a-(((1-methylcyclopropyl)sulfonyl)carbamoyl)-5,16-dioxo-1,2,3,5,6,7,8,9,10,11,13a,14,14a,15,16,16a-hexadecahydrocyclopropa[e]pyrrolo[1,2-a][1,4]diazacyclopentadecin-6-yl)carbamate], the EC50 in experiment [1] and in experiment [2] was < 5.46 nM throughout.

Take `COc1ccc2c(O[C@@H]3C[C@H]4C(=O)N[C@]5(C(=O)NS(=O)(=O)C6CC6)C[C@H]5/C=C\CC[C@H](C)C[C@@H](C)[C@H](NC(=O)OC(C)(C)C)C(=O)N4C3)nc(N(C)C)cc2c1` [Compound 3120, tert-butyl ((2R,6S,7R,9S,13aS,14aR,16aS,Z)-14a-((cyclopropylsulfonyl)carbamoyl)-2-((3-(dimethylamino)-6-methoxyisoquinolin-1-yl)oxy)-7,9-dimethyl-5,16-dioxo-1,2,3,5,6,7,8,9,10,11,13a,14,14a,15,16,16a-hexadecahydrocyclopropa[e]pyrrolo[1,2-a][1,4]diazacyclopentadecin-6-yl)carbamate]: the EC50 in experiment [1] and in experiment [2] was 4.82 to 103 nM throughout.

Take `COc1ccc2c(O[C@@H]3C[C@H]4C(=O)N[C@]5(C(=O)NS(=O)(=O)C6CC6)C[C@H]5/C=C\CC[C@@H](C)C[C@@H](C)[C@H](NC(=O)OC(C)(C)C)C(=O)N4C3)nc(N(C)C)cc2c1` [Compound 3121, tert-butyl ((2R,6S,7R,9R,13aS,14aR,16aS,Z)-14a-((cyclopropylsulfonyl)carbamoyl)-2-((3-(dimethylamino)-6-methoxyisoquinolin-1-yl)oxy)-7,9-dimethyl-5,16-dioxo-1,2,3,5,6,7,8,9,10,11,13a,14,14a,15,16,16a-hexadecahydrocyclopropa[e]pyrrolo[1,2-a][1,4]diazacyclopentadecin-6-yl)carbamate]: the EC50 in experiment [1] is 4.82 to 103 nM; in experiment [2] it was < 5.46 nM.

As for `COc1ccc2c(O[C@@H]3C[C@H]4C(=O)N[C@]5(C(=O)NS(=O)(=O)C6(CF)CC6)C[C@H]5/C=C\CC[C@H](C)C[C@@H](C)[C@H](NC(=O)OC(C)(C)C)C(=O)N4C3)nc(N(C)C)cc2c1` [Compound 3122, tert-butyl ((2R,6S,7R,9S,13aS,14aR,16aS,Z)-2-((3-(dimethylamino)-6-methoxyisoquinolin-1-yl)oxy)-14a-(((1-(fluoromethyl)cyclopropyl)sulfonyl)carbamoyl)-7,9-dimethyl-5,16-dioxo-1,2,3,5,6,7,8,9,10,11,13a,14,14a,15,16,16a-hexadecahydrocyclopropa[e]pyrrolo[1,2-a][1,4]diazacyclopentadecin-6-yl)carbamate], the EC50 in experiment [1] and in experiment [2] was 4.82 to 103 nM throughout.

Take `COc1ccc2c(O[C@@H]3C[C@H]4C(=O)N[C@]5(C(=O)NS(=O)(=O)C6(CF)CC6)C[C@H]5/C=C\CC[C@@H](C)C[C@@H](C)[C@H](NC(=O)OC(C)(C)C)C(=O)N4C3)nc(N(C)C)cc2c1` [Compound 3123, tert-butyl ((2R,6S,7R,9R,13aS,14aR,16aS,Z)-2-((3-(dimethylamino)-6-methoxyisoquinolin-1-yl)oxy)-14a-(((1-(fluoromethyl)cyclopropyl)sulfonyl)carbamoyl)-7,9-dimethyl-5,16-dioxo-1,2,3,5,6,7,8,9,10,11,13a,14,14a,15,16,16a-hexadecahydrocyclopropa[e]pyrrolo[1,2-a][1,4]diazacyclopentadecin-6-yl)carbamate]: the EC50 in experiment [1] and in experiment [2] was 4.82 to 103 nM in each case.

`COc1ccc2c(O[C@@H]3C[C@H]4C(=O)N[C@]5(C(=O)NS(=O)(=O)C6(CF)CC6)C[C@H]5/C=C\CC[C@H](C)C[C@@H](C)[C@H](NC(=O)OC(C)(C)C(C)(F)F)C(=O)N4C3)nc(N(C)C)cc2c1` [Compound 3124, 3,3-difluoro-2-methylbutan-2-yl((2R,6S,7R,9S,13aS,14aR,16aS,Z)-2-((3-(dimethylamino)-6-methoxyisoquinolin-1-yl)oxy)-14a-(((1-(fluoromethyl)cyclopropyl)sulfonyl)carbamoyl)-7,9-dimethyl-5,16-dioxo-1,2,3,5,6,7,8,9,10,11,13a,14,14a,15,16,16a-hexadecahydrocyclopropa[e]pyrrolo[1,2-a][1,4]diazacyclopentadecin-6-yl)carbamate]: the EC50 in experiment [1] and in experiment [2] was 4.82 to 103 nM throughout.

For orientation: EC50 means the concentration giving half of the maximal effect.

The values above are taken from US9499550B2 (BRISTOL-MYERS SQUIBB COMPANY, priority 2012, dated 2016).
